Results from publication PMC2074348, “Preclinical in vivo efficacy of two 9-dihydrotaxane analogues against human and murine tumours” (British Journal of Cancer, 1996).
Converted amounts (≈) assume the structure as drawn. Like-named read-outs stand apart in the source and are kept apart here.

Columns and labels:
A549 = assay: In vitro tumour cell cytotoxicity, colorimetric MTT assay, 72 h; assay type: cell-based, human; settings: Homo sapiens, 72 h exposure, read-out: IC50
HT-29 = assay: as above; assay type: cell-based, human; settings: Homo sapiens, 72 h exposure, read-out: IC50
B16F10 = assay: as above; assay type: cell-based, murine; settings: Mus musculus, B16-F10, 72 h exposure, read-out: IC50
P388 = assay: as above; assay type: cell-based, murine; settings: Mus musculus, 72 h exposure, read-out: IC50
[1] = test system: BDF mice bearing B16F10 ascites tumours; settings: maximum dose yielding <20% lethality following five i.p. doses once daily
[2] = test system: human MX-1 xenograft solid tumour; settings: for Delay (1.0 g) (footnote: delay to reach mean tumour mass = 0.5 g, compared with untreated) / Per cent cures (mice with no palpable tumours, day 60) / Per cent toxicity / TWI (per cent tumour weight inhibition when untreated control mean = 0.5 g): q.d., i.p., days 1-5 after inoculation, s.c. xenograft
[3] = mouse, in vivo, ip, 20 mg/kg
breast tumour = test system: breast tumour; parameters: method as in Holmes et al., 1991; settings: breast tumour patients who had failed one previous course of chemotherapy; ref Holmes et al., 1991; cited from earlier work
ovarian tumours = test system: ovarian tumours; parameters: method as in McGuire et al., 1989; settings: ovarian tumours that had failed cisplatinum therapy; ref McGuire et al., 1989; cited from earlier work
in vivo = settings: male, CD-1, mouse, ip, 20 mg/kg
murine M109 solid tumour = assay: In vivo efficacy vs subcutaneous M109 solid tumour
[4] = test system: murine B16F10 melanoma ascites tumour; assay: In vivo efficacy vs i.p. B16F10 melanoma ascites tumour; settings: for %ILS (group mean increase in lifespan) / MST (mean survival time ± s.d.) / Per cent toxicity (mice with premature death) / Per cent cures (mice alive 60 days after inoculation): q.d., i.p., days 1-5 after inoculation, BDF1 mice
[5] = dose 6.25 mg kg-1 per day, nude mice
[6] = dose 12.5 mg kg-1 per day, nude mice
[7] = dose 25 mg kg-1 per day, nude mice
[8] = once daily on days 1-5 after inoculation
[9] = dose 6.25 mg kg-1 per day, q.d., i.p., days 1, 5, 9 after inoculation, s.c. tumour, BDF1 mice
[10] = dose 12.5 mg kg-1 per day, q.d., i.p., days 1, 5, 9 after inoculation, s.c. tumour, BDF1 mice
[11] = dose 25 mg kg-1 per day, q.d., i.p., days 1, 5, 9 after inoculation, s.c. tumour, BDF1 mice
[12] = at non-toxic doses, i.p. once daily for 5 consecutive days

## CC(=O)O[C@H]1C(=O)[C@@]2(C)[C@H]([C@H](OC(=O)c3ccccc3)[C@]3(O)C[C@H](OC(=O)[C@H](O)[C@@H](NC(=O)c4ccccc4)c4ccccc4)C(C)=C1C3(C)C)[C@]1(OC(C)=O)CO[C@@H]1C[C@@H]2O [Paclitaxel, reference compound]
A549
  IC50: 3.4 ng/mL (≈ 3.98 nM)
HT-29
  IC50: 2.7 ng/mL (≈ 3.16 nM)
B16F10
  IC50: 4.9 ng/mL (≈ 5.74 nM)
P388
  IC50: 9.9 ng/mL (≈ 11.6 nM)
[1]
  MTD (q.d. days 1-5): 25 mg kg-1 per day
[2]; administered on days 1-5 after inoculation, nude mice
  Optimal dose: 12.5 mg kg-1 per dose
[2]; analogues optimally, paclitaxel at non-toxic doses
  Tumour weight inhibition (TWI) when untreated mice had a mean tumour mass of 0.5 g: 80%
[2]; [5]
  Delay (1.0 g) (footnote: delay to reach mean tumour mass = 0.5 g, compared with untreated): 1.4 days
  Per cent cures (mice with no palpable tumours, day 60): 0%
  Per cent toxicity: 0%
  TWI (per cent tumour weight inhibition when untreated control mean = 0.5 g): 42%
[2]; [6]
  Delay (1.0 g) (footnote: delay to reach mean tumour mass = 0.5 g, compared with untreated): 13.4 days
  Per cent cures (mice with no palpable tumours, day 60): 10%
  Per cent toxicity: 0%
  TWI (per cent tumour weight inhibition when untreated control mean = 0.5 g): 80%
[2]; [7]
  Delay (1.0 g) (footnote: delay to reach mean tumour mass = 0.5 g, compared with untreated): 19.1 days
  Per cent cures (mice with no palpable tumours, day 60): 30%
  Per cent toxicity: 40%
  TWI (per cent tumour weight inhibition when untreated control mean = 0.5 g): 100%
[2]; [8]
  Cure rate: 10%
  Delay in tumour growth compared with untreated controls: 13.4 days
[3]
  AUC: 42.53 ig per h ml-1
  AUC value (rounded): 43 jg h-1 ml-1
  Cmax: 14.13 ig ml-1
  Cmax (rounded): 14 jg ml-1
Breast tumour
  Response rate: 48%
Ovarian tumours
  Response rate: 30%
In vivo
  Tmax: 1.5 h
  half-life: 2.9 h
Murine M109 solid tumour
  Tumour weight inhibition (TWI) when untreated mice had a mean tumour mass of 1 g: 47%
Murine M109 solid tumour; [9]
  Delay (1.0 g): delay to reach mean tumour mass = 1.0 g, compared with untreated: 0.4 days
  Per cent cures (mice with no palpable tumours, day 60): 0%
  Per cent toxicity: 0%
  TWI (per cent tumour weight inhibition when untreated control mean = 1.0 g): 22%
Murine M109 solid tumour; [10]
  Days (1.0 g): days to reach mean tumour mass = 1.0 g ± s.d.: 12.6+ 1.0 days
  Delay (1.0 g): delay to reach mean tumour mass = 1.0 g, compared with untreated: 0.6 days
  Per cent cures (mice with no palpable tumours, day 60): 0%
  Per cent toxicity: 0%
  TWI (per cent tumour weight inhibition when untreated control mean = 1.0 g): 40%
Murine M109 solid tumour; [11]
  Delay (1.0 g): delay to reach mean tumour mass = 1.0 g, compared with untreated: 0.9 days
  Per cent cures (mice with no palpable tumours, day 60): 0%
  Per cent toxicity: 30%
  TWI (per cent tumour weight inhibition when untreated control mean = 1.0 g): 47%
Murine M109 solid tumour; paclitaxel at a non-toxic dose
  Delay in solid tumour growth to 1 g: 0.6 days
[4]; [12]
  Cure rate at optimal non-toxic dose: 0%
  Optimal increase in life span (ILS): 96%
[4]; dose 6.25 mg kg-1 per day
  %ILS (group mean increase in lifespan): 34%
  MST (mean survival time ± s.d.): 26.4 ± 3.4 days
  Per cent toxicity (mice with premature death): 0%
[4]; dose 12.5 mg kg-1 per day
  %ILS (group mean increase in lifespan): 34%
  Per cent cures (mice alive 60 days after inoculation): 0%
  Per cent toxicity (mice with premature death): 0%
[4]; dose 25 mg kg-1 per day
  %ILS (group mean increase in lifespan): 96%
  MST (mean survival time ± s.d.): 38.6 ± 4.8 days
  Per cent cures (mice alive 60 days after inoculation): 0%
  Per cent toxicity (mice with premature death): 0%
[4]; i.p. once daily for 5 consecutive days
  Optimal dose: 25 mg/kg/day
